From article PMC7523345 (Investigational new drugs, 2018)

Legend:
[1] = tested on: Hes1; experiment: Hes1 expression in peripheral blood; format: in vivo, human; conditions: after 2 weeks of dosing at 1.2 mg QD and 1.5 mg QD
[2] = tested on: Deltex1; experiment: Deltex1 expression in peripheral blood; format: in vivo, human; conditions: 4 mg BIW
[3] = tested on: advanced solid tumours; experiment: Tumour response by RECIST 1.1; format: in vivo, human
[4] = molecular target: Notch receptors (Notch1 to 4); conditions: all 4 mammalian Notch receptors (Notch1 to 4); nonclinical; cited from earlier work
[5] = tested on: human T-ALL xenograft models; conditions: single agent; nonclinical; cited from earlier work
[6] = tested on: solid tumour xenografts; conditions: including 3 breast, 1 NSCLC, 1 pancreatic carcinoma; nonclinical; cited from earlier work
[7] = in vivo; cited from earlier work

Structure (SMILES): Cc1cccc2c1NC(=O)[C@@H](NC(=O)[C@H](CCC(F)(F)F)[C@H](CCC(F)(F)F)C(N)=O)N=C2c1cccc(F)c1 [BMS-986115]
- Peak inhibition of geometric mean relative expression of Hes1 [1]: > 80%
- Inhibition of geometric mean relative expression of Deltex1 [2]: > 50%
- Subjects with progressive disease as best tumour response ([3]; 36 treated subjects): 58%
- Subjects with stable disease (SD) as best tumour response ([3]; 36 treated subjects): 31%
- Subjects with SD for more than 6 months ([3]; 36 treated subjects, both arms): 5 subjects
- Patients with stable disease for more than 6 months ([3]; Arm A): Three
- Patients with stable disease for more than 6 months ([3]; Arm B): 2 patients
- Patients with prolonged SD of >6 months with disease shrinkage ([3]; dose levels that are pharmacodynamically active): 3 patients
- maximum tumor shrinkage ([3]; patient with clear cell renal cell carcinoma, 1.2 mg QD, after ~5.5 months of treatment): 23.9%
- maximum disease shrinkage ([3]; patient with fibromatosis, 1.5 mg QD, after ~9 months of treatment): 16.5%
- maximum tumor shrinkage ([3]; patient with retroperitoneal liposarcoma, 2 mg QD, after ~7.5 months of treatment): 13.8%
- median inhibitory concentrations (IC50s) [4]: low nanomolar
- Efficacy in human T-ALL xenograft models [5]: effective as a single agent
- Solid tumour xenografts with anti-tumour activity [6]: 5 out of 7
- Main pharmacological toxicities in animal studies [7]: dose-dependent gastrointestinal (GI) toxicity, lymphoid depletion, and interruption of ovarian follicle maturation
